Laboratory results reported in ChEMBL document CHEMBL6074653, “Reversal of insulin resistance to combat type 2 diabetes mellitus by newer thiazolidinedione's in fructose induced insulin resistant rats” (Eur J Med Chem, 2024).
The source made the active and inactive calls. The rule behind the calls is not given here.

How the values were obtained:
[1] = test system: Rattus norvegicus; assay: Anti-diabetic activity in Wistar rat Diaphragm assessed as […] at 10 mg/kg, po administered for 15 days; assay type: functional, organism-based; conditions: time 15.0 day
[2] = test system: Rattus norvegicus; assay: Anti-diabetic activity in fructose-treated male Wistar rat assessed as increase in glycogen content in skeletal muscle at 10 mg/kg, po administered for 15 days; assay type: functional, organism-based; conditions: time 15.0 day
[3] = test system: Rattus norvegicus; assay: Anti-diabetic activity in fructose-treated male Wistar rat assessed as decrease in HOMO-IR level at 10 mg/kg, po administered for 15 days; assay type: functional, organism-based; conditions: time 15.0 day
[4] = Drug recovery in rat plasma at 50 mg/kg, po by HPLC analysis; assay type: ADME, organism-based; conditions: in vivo
[5] = test system: Rattus norvegicus; assay: Anti-diabetic activity in fructose-treated male Wistar rat assessed as increase in HDL level at 10 mg/kg, po administered for 15 days (reference value: 25.35 +/-2.03 mg/dL); assay type: functional; conditions: time 15 day
[6] = Drug recovery in rat plasma at 100 mg/kg, po by HPLC analysis; assay type: ADME, organism-based; conditions: in vivo
[7] = test system: Rattus norvegicus; assay: Anti-diabetic activity in fructose-treated male Wistar rat assessed as decrease in VLDL level at 10 mg/kg, po administered for 15 days (reference value: 28 +/-0.28 mg/dL); assay type: functional; conditions: time 15 day
[8] = test system: L6; assay: Induction of glucose uptake in rat L6 cells incubated for 24 hrs by GOD-POD technique; assay type: functional; design: concentration or dose not given beside the values
[9] = Cmax in male Wistar rat at 10 mg/kg, po measured upto 24 hrs; assay type: ADME, organism-based; conditions: in vivo
[10] = AUC (0 to infinity) in male Wistar rat at 10 mg/kg, po measured upto 24 hrs; assay type: ADME, organism-based; conditions: in vivo
[11] = test system: Rattus norvegicus; assay: Anti-diabetic activity in fructose-treated male Wistar rat assessed as increase in glycogen content in liver at 10 mg/kg, po administered for 15 days; assay type: functional, organism-based; conditions: time 15.0 day
[12] = test system: Rattus norvegicus; assay: Anti-diabetic activity in fructose-treated male Wistar rat assessed as decrease in insulin level at 10 mg/kg, po administered for 15 days by insulin tolerance test; assay type: functional, organism-based; conditions: time 15.0 day
[13] = Tmax in male Wistar rat at 10 mg/kg, po measured upto 24 hrs; assay type: ADME, organism-based; conditions: in vivo
[14] = Retention time of the compound by HPLC analysis; assay type: physicochemical
[15] = test system: Rattus norvegicus; assay: Anti-diabetic activity in fructose-treated male Wistar rat assessed as decrease in SGOT level at 10 mg/kg, po administered for 15 days (reference value: […]); assay type: functional; conditions: time 15 day
[16] = test system: Rattus norvegicus; assay: Anti-diabetic activity in fructose-treated male Wistar rat assessed as decrease in fasting blood glucose level at 10 mg/kg, po administered for 15 days; assay type: functional, organism-based; conditions: time 15.0 day
[17] = Half life in male Wistar rat at 10 mg/kg, po measured upto 24 hrs; assay type: ADME, organism-based; conditions: in vivo
[18] = AUC (0 to t) in male Wistar rat at 10 mg/kg, po measured upto 24 hrs; assay type: ADME, organism-based; conditions: in vivo
[19] = test system: Rattus norvegicus; assay: Anti-diabetic activity in fructose-treated male Wistar rat assessed as change in HOMO-IR level at 10 mg/kg, po administered for 15 days; assay type: functional, organism-based; conditions: time 15.0 day
[20] = Drug recovery in rat plasma at 150 mg/kg, po by HPLC analysis; assay type: ADME, organism-based; conditions: in vivo
[21] = test system: Rattus norvegicus; assay: Anti-diabetic activity in fructose-treated male Wistar rat assessed as decrease in triglycerides level at 10 mg/kg, po administered for 15 days (reference value: 140.03 +/-3.55 mg/dL); assay type: functional; conditions: time 15 day
[22] = test system: Rattus norvegicus; assay: Anti-diabetic activity in fructose-treated male Wistar rat assessed as decrease in MDA level in liver at 10 mg/kg, po administered for 15 days (reference value: 294.65 +/-11.78 nM/mg ); assay type: functional; conditions: time 15 day
[23] = test system: Rattus norvegicus; assay: Anti-diabetic activity in fructose-treated male Wistar rat assessed as increase in total cholesterol level at 10 mg/kg, po administered for 15 days (reference value: 93.68 +/-1.68 mg/dL); assay type: functional; conditions: time 15 day
[24] = test system: Rattus norvegicus; assay: Anti-diabetic activity in fructose-treated male Wistar rat assessed as increase in GSH level in liver at 10 mg/kg, po administered for 15 days (reference value: 39.98 +/-0.86 nM/mg ); assay type: functional; conditions: time 15 day
[25] = test system: Rattus norvegicus; assay: Anti-diabetic activity in fructose-treated male Wistar rat assessed as increase in LDL level at 10 mg/kg, po administered for 15 days (reference value: 40.32 +/-1.08 mg/dL); assay type: functional; conditions: time 15 day
[26] = test system: Rattus norvegicus; assay: Anti-diabetic activity in fructose-treated male Wistar rat assessed as increase in SOD level in liver at 10 mg/kg, po administered for 15 days (reference value: 13.25 +/-1.35 U/ml); assay type: functional; conditions: time 15 day
[27] = Acute toxicity in male Wistar rat assessed as body weight gain at 10 mg/kg, po administered for 15 days; assay type: organism-based; conditions: in vivo, 360 h, time 15 day
[28] = test system: Rattus norvegicus; assay: Anti-diabetic activity in fructose-treated male Wistar rat assessed as increase in CAT level in liver at 10 mg/kg, po administered for 15 days (reference value: 27.65 +/-1.02 U/min); assay type: functional; conditions: time 15 day
[29] = test system: Rattus norvegicus; assay: Anti-diabetic activity in fructose-treated male Wistar rat assessed as decrease in SGPT level at 10 mg/kg, po administered for 15 days (reference value: […]); assay type: functional; conditions: time 15 day

CCc1ccc(CCOc2ccc(CC3SC(=O)NC3=O)cc2)nc1 (centres undefined) [PIOGLITAZONE]
Activity [1]: Active | Activity [2]: Active | Activity [3]: inactive | Drug recovery [4]: 97.1% | Activity [5]: 60.72 mg/dL | Drug recovery [6]: 97.4% | Activity [7]: 12.7 mg/dL | Activity [8]: 82.36% | Cmax [9]: 3130 ng/mL | AUC(0-inf) [10]: 43600 ng·h/mL | Activity [11]: Active | Activity [12]: Active | Tmax [13]: 2.69 h | Retention_time [14]: 2.4 min | Activity [15]: 32.45 U/L | Activity [16]: Active | half-life [17]: 4.92 h | AUC(0-t) at 24 h [18]: 41500 ng·h/mL | Activity [19]: Active | Drug recovery [20]: 98% | Activity [21]: 63.57 mg/dL | Activity [22]: 178.35 nM/mg | Activity [23]: 122.79 mg/dL | Activity [24]: 77.65 nM/mg | Activity [25]: 49.35 mg/dL | Activity [26]: 27.65 U/ml | Activity [27]: Non-toxic | Activity [28]: 55.63 U/min | Activity [29]: 29.73 U/L
